Assay in all cases: inhibition of tumour cell growth, NCI panel, 48 h
Experiment [1] deals with MOLT-4.
Experiment [2] has as its system NCI-H460.
Experiment [3] relates to HCT-15.
The test system of experiment [4] is Malme-3M.
Experiment [5] concerns SF-295.
The subject of experiment [6] is UO-31.
For experiment [7], the system named is SK-MEL-28.
Experiment [8] concerns CAKI-1.
The subject of experiment [9] is A549.
Experiment [10] has as its system RXF 393.
The subject of experiment [11] is SW-620.
The test system of experiment [12] is OVCAR-5.
The subject of experiment [13] is LOX IMVI.
Experiment [14] deals with SNB-19.
Experiment [15] deals with SNB-75.
Experiment [16] deals with OVCAR-8.
The test system of experiment [17] is NCI-H23.
The subject of experiment [18] is IGROV-1.
Experiment [19] concerns COLO 205.
Experiment [20] has as its system UACC-62.

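Five compound concentrations were applied to cells in 96-well plates for 48 hours; endpoints were derived by simple linear interpolation of the resulting dose-response curve. GI50: concentration for 50% inhibition of growth.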 Activity calls are given as the source filed them. Rule as the data show it: active = GI50 up to about 1.1 µM and inactive = higher.

As for `CC(C)=CCC/C(C)=C/C=C/C(C)=C/C1C[C@@]2(C(O)O1)[C@H](CCCO)/C(=C(/C)C=O)CC[C@]2(C)O` (stereo not given in full), the GI50 in experiment [1] was 4.95 µM (inactive); in experiment [2], 6.64 µM (inactive); in [3], 16.3 µM; in experiment [4], 4.59 µM (inactive); in experiment [5], 11.4 µM (inactive); in experiment [6], 17.3 µM (inactive). The GI50 in [7] was 15.9 µM (inactive); in experiment [8], 11.6 µM (inactive); in experiment [9], 7.8 µM (inactive); in [10], 18.6 µM (inactive); in experiment [11] it was 10.4 µM (inactive); in experiment [12] it was 40.8 µM (inactive). Moreover, the GI50 in experiment [13] was 11.7 µM (inactive); in experiment [14] it was 19.1 µM (inactive); in experiment [15], 51.9 µM (inactive); in experiment [16] it was 22 µM (inactive); in [17], > 10 µM (inactive); in experiment [18] it was 22.3 µM (inactive). Moreover, the GI50 in experiment [19] is 1.08 µM (active).

For `CC1CC[P+](c2ccccc2)(c2ccccc2)c2c1ccc1ccccc21` (stereo not given), the GI50 in [20] was 2.51 µM (inactive); in experiment [1], 5.66 µM (inactive); in [2] it was 2 µM (inactive); in experiment [3], 31.9 µM; in experiment [4] it was 5.96 µM (inactive); in experiment [5], 3.5 µM (inactive). Moreover, the GI50 in experiment [6] is 15.9 µM (inactive); in experiment [8] it was 6.75 µM (inactive); in experiment [9], 4.83 µM (inactive); in experiment [10], 9.08 µM (inactive); in [12], 5.26 µM (inactive); in [13], 2.33 µM (inactive). For the same molecule, the GI50 in experiment [14] was 2.44 µM (inactive); in experiment [15], 2.37 µM (inactive); in experiment [16], 1.84 µM (inactive); in experiment [17] it was 1.57 µM (inactive).

Regarding `O=C1CCC23CC(C=CC=C12)n1c(=O)n(-c2ccccc2)c(=O)n13` (stereo not given), the GI50 in experiment [20] was > 100 µM (inactive); in [1], 49.7 µM (inactive); in experiment [2], > 100 µM (inactive); in [3] it was over 78.7 µM; in experiment [4], > 100 µM (inactive); in experiment [5] it was > 100 µM (inactive). The GI50 in [6] is > 64.4 µM (inactive); in experiment [7], > 69.2 µM (inactive); in experiment [8] it was > 50.6 µM (inactive); in [9], > 63.8 µM (inactive); in experiment [10] it was 99.3 µM (inactive); in experiment [11], 43.2 µM (inactive). In addition, the GI50 is > 100 µM (inactive) in [12]; > 72.1 µM (inactive) in experiment [13]; > 100 µM (inactive) in experiment [14]; > 100 µM (inactive) in experiment [15]; > 100 µM (inactive) in experiment [16]; 99.1 µM (inactive) in experiment [17]. In addition, the GI50 in experiment [18] and in experiment [19] was > 100 µM (inactive) each time.

`Cc1ccc(NC(=O)OCC(COc2ccc(Cl)cc2)OC(=O)Nc2ccc(C)cc2)cc1` (stereo not given): the GI50 in [20] was 19.1 µM (inactive); in experiment [1] it was 16.2 µM (inactive); in [2] it was 25.9 µM (inactive); in experiment [3], 29.7 µM; in experiment [4], 19 µM (inactive); in experiment [5], 23.5 µM (inactive). In addition, the GI50 in experiment [6] was 11.9 µM (inactive); in [7] it was 35.1 µM (inactive); in experiment [8] it was 15.7 µM (inactive); in [9], 13.7 µM (inactive); in experiment [10] it was 12.9 µM (inactive); in experiment [11] it was 17.1 µM (inactive). In addition, the GI50 in experiment [12] is 27.9 µM (inactive); in experiment [13], 21.2 µM (inactive); in experiment [14], 19.6 µM (inactive); in [15], 14.5 µM (inactive); in experiment [16], 81.3 µM (inactive); in experiment [17], 25.9 µM (inactive). The GI50 in [18] was 9.79 µM (inactive); in experiment [19], 39.6 µM (inactive).

As for `CCCCNC(=O)N/C=C1\C(=O)Oc2ccccc2C1=O`, the GI50 in [20] is 33.4 µM (inactive); in experiment [1], 35.3 µM (inactive); in [2], > 100 µM (inactive); in experiment [3], 28.8 µM; in [6], 11.8 µM (inactive); in experiment [7], 30.1 µM (inactive). The GI50 is 80.9 µM (inactive) in experiment [9]; 15 µM (inactive) in experiment [10]; 58.7 µM (inactive) in experiment [11]; 68.5 µM (inactive) in experiment [12]; 70.1 µM (inactive) in [13]; 26.5 µM (inactive) in experiment [14]. Moreover, the GI50 was 74.1 µM (inactive) in experiment [16], 54.6 µM (inactive) in experiment [17], 37.1 µM (inactive) in experiment [18] and > 100 µM (inactive) in [19].

Take `C[C@@H]1CC[C@H]2[C@H]1[C@H]1[C@@H](CC[C@]2(C)N=C=S)C1(C)C`: the GI50 was 21.8 µM (inactive) in experiment [20]; 13.8 µM (inactive) in experiment [1]; 20.4 µM (inactive) in experiment [2]; 27.8 µM in experiment [3]; 22.5 µM (inactive) in experiment [4]; 21.4 µM (inactive) in experiment [5]. Further, the GI50 in experiment [6] is 32.1 µM (inactive); in [7], 21.1 µM (inactive); in experiment [8], 37.8 µM (inactive); in [10], 15.5 µM (inactive); in experiment [11], 15.1 µM (inactive); in experiment [12], 28.3 µM (inactive). The GI50 in [13] is 59.4 µM (inactive); in [14], > 10 µM (inactive); in experiment [15] it was 50.5 µM (inactive); in experiment [16] it was 41.7 µM (inactive); in [17] it was 29.5 µM (inactive); in experiment [18], 45 µM (inactive). Further, in experiment [19], the GI50 was 18.5 µM (inactive).

With `CCOC(=O)N1C=NC23C(c4ccccc4)C(c4ccccc4)C12C(=O)N(C)C(=O)N3C` (stereo not given), the GI50 in [20] was > 100 µM (inactive); in experiment [1], > 100 µM (inactive); in [2], > 100 µM (inactive); in [3], over 100 µM; in [4], > 100 µM (inactive); in experiment [5], > 100 µM (inactive). Further, the GI50 in [6] was 77.1 µM (inactive); in experiment [7] it was > 100 µM (inactive); in experiment [8] it was > 100 µM (inactive); in experiment [9], > 100 µM (inactive); in experiment [10] it was 16.3 µM (inactive); in [11], > 100 µM (inactive). Further, the GI50 in [12], in experiment [13], in [14], in experiment [15], in experiment [16] and in experiment [17] was > 100 µM (inactive) in each case. The GI50 in experiment [18] and in experiment [19] was > 100 µM (inactive) throughout.

For `SC1=Nc2ccccc2-c2nc(-c3ccccc3)cc(-c3ccc(Br)cc3)c2C1`, the GI50 in experiment [20] is 2.26 µM (inactive); in [1], 18.2 µM (inactive); in experiment [2] it was 0.859 µM (active); in experiment [3], 3.54 µM; in [4], 2.59 µM (inactive); in experiment [5], 1.89 µM (inactive). The GI50 in [6] was 1.57 µM (inactive); in experiment [7], 11.2 µM (inactive); in experiment [8], 1.5 µM (inactive); in [9], 2.32 µM (inactive); in experiment [10], 1.7 µM (inactive); in [11] it was 2.4 µM (inactive). Also, the GI50 in experiment [12] is 2.81 µM (inactive); in [13], 2.99 µM (inactive); in experiment [14], 1.21 µM (inactive); in [15], 1.26 µM (inactive); in [16], 1.1 µM (active); in experiment [17], 2.65 µM (inactive). For the same molecule, the GI50 in [18] was 1.22 µM (inactive); in experiment [19], 2.66 µM (inactive).
